The CheMixHub ionic liquid set

Assay: xn = mol fraction of the nth substance listed

CCCC[n+]1cccc(C)c1.F[B-](F)(F)F + O
298.15 K, 101 kPa
Settings	electrical conductivity [S/m]
x1 = 0.0002144	0.107
x1 = 0.0004179	0.2
x1 = 0.0004845	0.232
x1 = 0.0007527	0.331
x1 = 0.001001	0.448
x1 = 0.001159	0.5
x1 = 0.00129	0.549
x1 = 0.001546	0.642
x1 = 0.001714	0.709
x1 = 0.001876	0.763
x1 = 0.002129	0.837
x1 = 0.002298	0.886
x1 = 0.002565	0.977
x1 = 0.002757	1.03
x1 = 0.002862	1.08
x1 = 0.003167	1.15
x1 = 0.003324	1.2

CCCC[n+]1ccn(C)c1.F[B-](F)(F)F + CO
101 kPa
Settings	electrical conductivity [S/m]	viscosity [mPa·s]
298.1 K, x1 = 0.007405	0.598	–
298.1 K, x1 = 0.03422	1.35	–
303.15 K, x2 = 0.6004	–	5.98
313.15 K, x2 = 0	–	53
313.15 K, x2 = 0.1003	–	36.1
313.15 K, x2 = 0.2047	–	24.26
313.15 K, x2 = 0.7997	–	1.778
313.15 K, x2 = 0.9001	–	0.993
323.15 K, x2 = 0.1003	–	25.42
323.15 K, x2 = 0.6004	–	4.07
333.15 K, x2 = 0.3996	–	7.23

NC(CO)CO + CC[n+]1ccn(C)c1.[Cl-]
101 kPa, x2 = 0.667
Settings	viscosity [mPa·s]
298.15 K	297
303.15 K	214
313.15 K	115.9
323.15 K	64.5
333.15 K	41.4

CC1COC(=O)O1 (configuration not stated) + CCCCn1cc[n+](C)c1C.O=S(=O)([N-]S(=O)(=O)C(F)(F)F)C(F)(F)F
101.3 kPa, x2 = 0
Settings	viscosity [mPa·s]
288.15 K	3.063
293.15 K	2.746
343.15 K	1.213

O=C(CO)[C@@H](O)[C@H](O)[C@@H](O)CO + CCCCCCCCCCCCCCCC[N+](C)(C)C.[Br-] + O
viscosity [mPa·s], 100 kPa
Settings	298.15 K	308.15 K	318.15 K
x2 = 7.19e-06, x1 = 0.002005	0.946	0.782	0.65
x2 = 7.19e-06, x1 = 0.002298	0.954	0.788	0.655
x2 = 7.19e-06, x1 = 0.002748	0.965	0.797	0.662
x2 = 7.2e-06, x1 = 0.0007582	0.915	0.757	0.629
x2 = 7.2e-06, x1 = 0.001199	0.926	0.766	0.637
x2 = 7.2e-06, x1 = 0.001449	0.932	0.771	–
x2 = 1.438e-05, x1 = 0.00232	0.96	0.793	0.658
x2 = 1.438e-05, x1 = 0.002732	0.971	0.802	0.665
x2 = 1.439e-05, x1 = 0.00146	0.937	–	–
x2 = 1.439e-05, x1 = 0.001979	0.951	0.786	0.652
x2 = 1.44e-05, x1 = 0.0008896	0.922	0.763	0.633
x2 = 1.44e-05, x1 = 0.001296	0.933	0.771	0.64
x2 = 2.156e-05, x1 = 0.002717	0.975	0.805	0.667
x2 = 2.157e-05, x1 = 0.002351	0.965	0.797	0.66
x2 = 2.158e-05, x1 = 0.001965	0.954	0.789	0.653
x2 = 2.159e-05, x1 = 0.001383	0.938	0.776	0.642
x2 = 2.159e-05, x1 = 0.001661	0.946	0.782	0.647
x2 = 2.16e-05, x1 = 0.001025	0.928	0.768	0.636

CC1COC(=O)O1 (configuration not stated) + CC[N+](CC)(CC)CC.F[B-](F)(F)F
101 kPa, x1 = 1
Settings	viscosity [mPa·s]
283.15 K	3.551
298.15 K	2.531
308.15 K	2.09
313.15 K	1.918

CN(CCO)CCO + CCCC[n+]1ccn(C)c1.F[B-](F)(F)F
101 kPa
Settings	viscosity [mPa·s]
293.15 K, x2 = 0.8999	105.6
303.15 K, x2 = 0.3	43.7
303.15 K, x2 = 0.8999	63.5
323.15 K, x2 = 0.1974	17.8
323.15 K, x2 = 0.6	18.8
333.15 K, x2 = 0.1974	12.09
333.15 K, x2 = 0.7998	16.8

O + CCCCCCCCCCCCCC[n+]1ccccc1.O=C([O-])C(O)c1ccccc1
101 kPa, x2 = 0
Settings	electrical conductivity [S/m]
293.15 K	0.00012
298.15 K	0.00015
303.15 K	0.00016
308.15 K	0.00017
313.15 K	0.00019

CCCCCCCCO + CCCC[n+]1ccn(C)c1.O=S(=O)([N-]S(=O)(=O)C(F)(F)F)C(F)(F)F
100 kPa
Settings	electrical conductivity, x2 = 0.03335 [S/m]	viscosity, x2 = 0 [mPa·s]	viscosity, x2 = 0.8499 [mPa·s]	viscosity, x2 = 0.8986 [mPa·s]
294.5 K	0.02	–	–	–
298 K	–	7.614	37.77	40.18
